Measured values: ChEMBL document CHEMBL5316327, “Design and Synthesis of Orally Active Quinolyl Pyrazinamides as Sigma 2 Receptor Ligands for the Treatment of Pancreatic Cancer” (J Med Chem, 2023)
pIC50, pKi: −log10 of the molar value. Activity calls are given as the source filed them. The calls are words filed in the database; no cut-off is given here.

Assays:
[1] = Toxicity in C57BL/6 mouse assessed as effect on body weight at 60 mg/kg, ip measured upto 28 days; type: organism-based; conditions: in vivo, 672 h, time < 28 day
[2] = Cmax in CD-1 mouse plasma at 20 mg/kg, po; type: ADME, organism-based; parameters: dose 20 mg/kg, route po
MIA PaCa-2 [3] = assay: Induction of apoptosis in human MIA PaCa-2 cells assessed as early apoptotic cells at 10.0 uM measured after 48 hrs by Annexin V-Alexa Fluor 488/propidium iodide staining based flow cytometry (reference value: 4.11%); type: functional
HCT-116 [4] = assay: Induction of apoptosis in human HCT-116 cells assessed as early apoptotic cells at 10.0 uM measured after 48 hrs by Annexin V-Alexa Fluor 488/propidium iodide staining based flow cytometry (reference value: 2.77%); type: functional
[5] = Half life in CD-1 mouse plasma at 10 mg/kg, iv; type: ADME, organism-based
D(1A) dopamine receptor = D(1A) dopamine receptor (Homo sapiens, UniProt P21728); assay: Binding affinity to dopamine D1 receptor (unknown origin) assessed as inhibition constant
HCT-116 [6] = assay: Induction of apoptosis in human HCT-116 cells assessed as late apoptotic cells at […] measured after 48 hrs by Annexin V-Alexa Fluor 488/propidium iodide staining based flow cytometry (reference value: 8.48%); type: functional; conditions: dose 2.5 µM
[7] = biological target: Beta-1 adrenergic receptor (Homo sapiens, UniProt P08588); assay: Binding affinity to beta1 receptor (unknown origin) assessed as inhibition constant
MIA PaCa-2 [8] = assay: Synergistic cytotoxicity against human MIA PaCa-2 cells at upto 1 uM measured after 7 days in presence of ammonium tetrathiomolybdate by crystal violet staining based analysis; type: functional, cell-based; conditions: time 7.0 day
HCT-116 [9] = assay: Induction of cell cycle arrest in human HCT-116 cells assessed as accumulation of cells in S phase at 1 uM measured after 24 hrs by propidium iodide staining-based flow cytometric analysis (reference value: 47%); type: functional
HCT-116 [10] = assay: Inhibition of colony formation in human HCT-116 cells at 0.04 to 30 uM pretreated with ammonium tetrathiomolybdate for 4 hrs followed by compound addition and measured after 6 days; type: functional, cell-based; conditions: dose 0.04-30 µM, time 6.0 day
Panc02 [11] = assay: Antitumor activity against mouse Panc02 cells xenografted in C57BL/6 mouse model assessed as delayed tumor growth at 60 mg/kg, ip administered daily for 28 days by caliper method; type: functional, organism-based; conditions: time 28.0 day
HCT-116 [12] = assay: Antagonistic cytotoxicity against human HCT-116 cells at upto 1 uM measured after 6 days in presence of elesclomol by crystal violet staining based analysis; type: functional, cell-based; conditions: time 6.0 day
MIA PaCa-2 [13] = assay: Synergistic ferroptosis activity in human MIA-PaCa-2 cells at upto 1 uM measured after 7 days in presence of erastin by crystal violet staining based analysis; type: functional, cell-based; conditions: time 7.0 day
MIA PaCa-2 [14] = assay: Synergistic cytotoxicity against human MIA PaCa-2 cells at upto 1 uM measured after 7 days in presence of copper chloride by crystal violet staining based analysis; type: functional, cell-based; conditions: time 7.0 day
MIA PaCa-2 [15] = assay: Synergistic cytotoxicity in human MIA PaCa-2 cells at upto 1 uM measured after 7 days in presence of paclitaxel by crystal violet staining based analysis; type: functional, cell-based; conditions: time 7.0 day
HCT-116 [16] = assay: Induction of cell cycle arrest in human HCT-116 cells assessed as accumulation of cells in G0/G1 phase at 10 uM measured after 24 hrs by propidium iodide staining-based flow cytometric analysis (reference value: 43%); type: functional
HCT-116 [17] = assay: Induction of cell cycle arrest in human HCT-116 cells assessed as accumulation of cells in S phase at 10 uM measured after 24 hrs by propidium iodide staining-based flow cytometric analysis (reference value: 47%); type: functional
HCT-116 [18] = assay: Induction of apoptosis in human HCT-116 cells assessed as viable cells at […] measured after 48 hrs by Annexin V-Alexa Fluor 488/propidium iodide staining based flow cytometry (reference value: 79.69%); type: functional; conditions: dose 2.5 µM, read-out: Activity
Panc02 [19] = assay: cells; conditions: Mus musculus, Panc02, 72 h
HCT-116 [20] = assay: Induction of apoptosis in human HCT-116 cells assessed as late apoptotic cells at 5.0 uM measured after 48 hrs by Annexin V-Alexa Fluor 488/propidium iodide staining based flow cytometry (reference value: 8.48%); type: functional
[21] = Toxicity in C57BL/6 mouse assessed as effect on body weight at 30 mg/kg, po administered for 32 days and measured on day 4,7 in presence of copper sulfate; type: organism-based; conditions: in vivo, 768 h, time 32 day
MIA PaCa-2 [22] = assay: Synergistic cytotoxicity in human MIA PaCa-2 cells at upto 1 uM measured after 7 days in presence of cisplatin by crystal violet staining based analysis; type: functional, cell-based; conditions: time 7.0 day
HCT-116 [23] = assay: Induction of apoptosis in human HCT-116 cells assessed as necrotic cells at 10.0 uM measured after 48 hrs by Annexin V-Alexa Fluor 488/propidium iodide staining based flow cytometry (reference value: 9.06%); type: functional
MIA PaCa-2 [24] = assay: Induction of apoptosis in human MIA PaCa-2 cells assessed as necrotic cells at 1.0 uM measured after 48 hrs by Annexin V-Alexa Fluor 488/propidium iodide staining based flow cytometry (reference value: 7.03%); type: functional
MIA PaCa-2 [25] = assay: Inhibition of colony formation in human MIA PaCa-2 cells at 0.04 to 30 uM pretreated with ammonium tetrathiomolybdate for 4 hrs followed by compound addition and measured after 6 days; type: functional, cell-based; conditions: dose 0.04-30 µM, time 6.0 day
D(1B) dopamine receptor = D(1B) dopamine receptor (Homo sapiens, UniProt P21918); assay: Binding affinity to dopamine D5 receptor (unknown origin) assessed as inhibition constant
[26] = biological target: Muscarinic acetylcholine receptor M1 (Homo sapiens, UniProt P11229); assay: Binding affinity to M1 receptor (unknown origin) assessed as inhibition constant
MIA PaCa-2 [27] = assay: Synergistic cytotoxicity in human MIA PaCa-2 cells at upto 1 uM measured after 7 days in presence of oxaliplatin by crystal violet staining based analysis; type: functional, cell-based; conditions: time 7.0 day
MIA PaCa-2 [28] = assay: Induction of apoptosis in human MIA PaCa-2 cells assessed as necrotic cells at […] measured after 48 hrs by Annexin V-Alexa Fluor 488/propidium iodide staining based flow cytometry (reference value: 7.03%); type: functional; conditions: dose 2.5 µM
MIA PaCa-2 [29] = assay: Induction of apoptosis in human MIA PaCa-2 cells assessed as viable cells at 10.0 uM measured after 48 hrs by Annexin V-Alexa Fluor 488/propidium iodide staining based flow cytometry (reference value: 82.23%); type: functional; conditions: read-out: Activity
MIA PaCa-2 [30] = assay: Induction of cell cycle arrest in human MIA PaCa-2 cells assessed as accumulation of cells in S phase at 1 uM measured after 24 hrs by propidium iodide staining-based flow cytometric analysis (reference value: 31%); type: functional
MIA PaCa-2 [31] = assay: Additive ferroptosis activity in human MIA-PaCa-2 cells at upto 1 uM measured after 7 days in presence of ferrostatin-1 by crystal violet staining based analysis; type: functional, cell-based; conditions: time 7.0 day
MIA PaCa-2 [32] = assay: Induction of apoptosis in human MIA PaCa-2 cells assessed as viable cells at 5.0 uM measured after 48 hrs by Annexin V-Alexa Fluor 488/propidium iodide staining based flow cytometry (reference value: 82.23%); type: functional; conditions: read-out: Activity
MIA PaCa-2 [33] = assay: Induction of apoptosis in human MIA PaCa-2 cells assessed as early apoptotic cells at […] measured after 48 hrs by Annexin V-Alexa Fluor 488/propidium iodide staining based flow cytometry (reference value: 4.11%); type: functional; conditions: dose 2.5 µM

Sequence of Muscarinic acetylcholine receptor M1 (P11229 whole entry): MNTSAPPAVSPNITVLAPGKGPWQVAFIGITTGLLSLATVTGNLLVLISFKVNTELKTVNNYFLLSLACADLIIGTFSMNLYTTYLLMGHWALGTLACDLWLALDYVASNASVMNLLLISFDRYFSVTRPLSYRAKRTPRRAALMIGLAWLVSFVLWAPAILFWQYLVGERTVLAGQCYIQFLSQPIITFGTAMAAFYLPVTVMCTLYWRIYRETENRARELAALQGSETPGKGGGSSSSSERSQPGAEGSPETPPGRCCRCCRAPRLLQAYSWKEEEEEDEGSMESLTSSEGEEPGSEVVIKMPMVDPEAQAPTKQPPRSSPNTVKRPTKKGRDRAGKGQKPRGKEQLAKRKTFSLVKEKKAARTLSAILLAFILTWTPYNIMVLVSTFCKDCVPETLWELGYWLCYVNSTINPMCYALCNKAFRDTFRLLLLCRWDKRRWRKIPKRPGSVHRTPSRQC
Sequence of Beta-1 adrenergic receptor (P08588 whole entry): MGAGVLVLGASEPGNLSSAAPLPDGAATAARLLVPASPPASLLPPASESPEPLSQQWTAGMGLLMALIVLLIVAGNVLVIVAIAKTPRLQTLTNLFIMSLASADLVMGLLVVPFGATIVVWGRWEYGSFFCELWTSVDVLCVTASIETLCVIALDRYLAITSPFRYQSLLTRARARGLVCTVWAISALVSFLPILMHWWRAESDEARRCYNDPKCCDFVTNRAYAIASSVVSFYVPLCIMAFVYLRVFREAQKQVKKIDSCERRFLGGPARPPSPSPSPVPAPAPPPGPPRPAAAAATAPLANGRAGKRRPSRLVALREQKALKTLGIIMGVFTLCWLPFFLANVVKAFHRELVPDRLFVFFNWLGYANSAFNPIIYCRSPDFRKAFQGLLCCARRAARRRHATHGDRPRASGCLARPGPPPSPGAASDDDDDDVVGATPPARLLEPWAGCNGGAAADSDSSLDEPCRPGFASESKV
Sequence of D(1A) dopamine receptor (P21728 whole entry): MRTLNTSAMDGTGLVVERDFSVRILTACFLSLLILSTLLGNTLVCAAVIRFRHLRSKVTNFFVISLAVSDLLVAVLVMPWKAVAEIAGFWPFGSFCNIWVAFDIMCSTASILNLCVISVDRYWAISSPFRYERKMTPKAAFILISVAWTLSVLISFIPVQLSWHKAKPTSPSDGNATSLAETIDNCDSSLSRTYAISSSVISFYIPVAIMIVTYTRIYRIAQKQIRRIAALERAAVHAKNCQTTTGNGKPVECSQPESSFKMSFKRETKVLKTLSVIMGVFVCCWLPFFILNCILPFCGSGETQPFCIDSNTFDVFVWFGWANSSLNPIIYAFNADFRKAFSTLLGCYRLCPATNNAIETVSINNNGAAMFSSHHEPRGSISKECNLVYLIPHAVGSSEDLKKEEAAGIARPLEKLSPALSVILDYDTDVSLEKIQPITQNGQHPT
Sequence of D(1B) dopamine receptor (P21918 whole entry): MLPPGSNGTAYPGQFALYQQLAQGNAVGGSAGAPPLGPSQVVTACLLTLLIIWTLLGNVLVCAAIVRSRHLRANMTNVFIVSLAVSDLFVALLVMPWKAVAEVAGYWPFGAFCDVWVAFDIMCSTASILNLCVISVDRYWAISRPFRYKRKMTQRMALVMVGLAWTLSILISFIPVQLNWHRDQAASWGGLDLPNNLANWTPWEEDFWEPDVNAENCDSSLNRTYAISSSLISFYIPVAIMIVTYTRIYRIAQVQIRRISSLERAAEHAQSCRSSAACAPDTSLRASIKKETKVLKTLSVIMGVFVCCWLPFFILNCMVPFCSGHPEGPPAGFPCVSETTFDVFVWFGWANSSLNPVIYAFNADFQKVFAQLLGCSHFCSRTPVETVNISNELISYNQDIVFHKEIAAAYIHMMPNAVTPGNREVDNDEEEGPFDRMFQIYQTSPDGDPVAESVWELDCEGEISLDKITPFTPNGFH

## CCN(CC)CCCC(C)Nc1cnc(C(=O)Nc2ccc(Cl)c3cccnc23)cn1 (stereo not given)
[1]
  Activity: Non-Toxic
[2]
  Cmax: 254 ng/mL
MIA PaCa-2 [3]
  Activity: 32.58%
HCT-116 [4]
  Activity: 16.72%
[5]
  half-life: 4.7 h
D(1A) dopamine receptor
  pKi: 5.84
HCT-116 [6]
  Activity: 20.26%
[7]
  pKi: 5.20
MIA PaCa-2 [8]
  Activity: inactive
HCT-116 [9]
  Activity: 34%
HCT-116 [10]
  inhibition: inactive
Panc02 [11]
  Activity: Active
HCT-116 [12]
  Activity: inactive
MIA PaCa-2 [13]
  Activity: Active
MIA PaCa-2 [14]
  Activity: Active
MIA PaCa-2 [15]
  Activity: inactive
HCT-116 [16]
  Activity: 57%
HCT-116 [17]
  Activity: 20%
HCT-116 [18]
  viability at […]: 68.1%
Panc02 [19]
  pIC50: 5.43
HCT-116 [20]
  Activity: 18.39%
[21]
  Activity: Toxic
MIA PaCa-2 [22]
  Activity: inactive
HCT-116 [23]
  Activity: 2.37%
MIA PaCa-2 [24]
  Activity: 3.16%
MIA PaCa-2 [25]
  inhibition: inactive
D(1B) dopamine receptor
  pKi: 5.81
[26]
  pKi: 5.38
MIA PaCa-2 [27]
  Activity: inactive
MIA PaCa-2 [28]
  Activity: 5.91%
MIA PaCa-2 [29]
  viability at 10 µM: 6.27%
MIA PaCa-2 [30]
  Activity: 40%
MIA PaCa-2 [31]
  Activity: Active
MIA PaCa-2 [32]
  viability at 5 µM: 32.4%
MIA PaCa-2 [33]
  Activity: 13.89%
